Test results reported in US8008329B2 (Dong Wha Pharmaceutical Co., Ltd., priority 2008, dated 2011).
Marks after values point to notes of the source that are not given here.

Test system: osteoclast differentiation
Assay: Osteoclast differentiation in co-culture of mouse bone marrow cells and ST2 cells, TRAP staining (Examples 8-9)
Assay type: cell-based
Conditions: for % number of osteoclast (vs. solvent control group): day 7; for activity at 0.1 µM: Mus musculus, Osteoclast, 168 h, day 7, read-out: % number of osteoclast (vs. solvent control group)
Outline: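 Bone marrow cells from 6-8-week male ddY mice were co-cultured with ST2 stromal cells under 10^−8 M vitamin D3 and 10^−8 M dexamethasone, with compounds at 0.1 μM final (0.1% DMSO control), refreshed on days 3 and 5. On day 7, TRAP-positive osteoclasts with ≥6 nuclei were counted and expressed as % of solvent control (n=4).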

[1] = Combination treatment (alendronic acid + compounds), 0.1 μM each
[2] = Combination treatment (risedronic acid + compounds), 0.1 μM each
[3] = Individual treatment (compounds), 0.1 μM

Compound	% number of osteoclast (vs. solvent control group) [1]	% number of osteoclast (vs. solvent control group) [2]	activity at 0.1 µM [3] [%]	% number of osteoclast (vs. solvent control group) [3] [%]
Cc1nc(-c2ccc(OCCCCCOc3ccc(C(=N)NO)cc3)cc2)c(CN2CCOCC2)s1 [Compound 293, N-hydroxy-4-{5-[4-(2-methyl-5-morpholin-4-ylmethyl-thiazol-4-yl)-phenoxy]-pentyloxy}-benzamidine]	15 ± 2.6^b %	11 ± 2.6^c %	36 ± 10	–
Cc1nc(-c2ccc(OCCCCCOc3ccc(C(=N)NO)cc3)cc2)c(CN2CCN(C)CC2)s1 [Compound 294, N-hydroxy-4-(5-{4-[2-methyl-5-(4-methyl-piperazin-1-ylmethyl)-thiazol-4-yl]-phenoxy}-pentyloxy)-benzamidine]	13 ± 2.4^ab %	9 ± 2.7^ac %	27 ± 4.5	–
Cc1nc(-c2ccc(OCCCCCOc3ccc(C(=N)NO)cc3)cc2)c(CN2CCCCC2)s1 [Compound 296, N-hydroxy-4-{5-[4-(2-methyl-5-piperidin-1-ylmethyl-thiazol-4-yl)-phenoxy]-pentyloxy}-benzamidine]	13 ± 2.6^ab %	8 ± 1.7^ac %	46 ± 3.6	–
CCCCNCc1sc(C)nc1-c1ccc(OCCCCCOc2ccc(C(=N)NO)cc2)cc1 [Compound 298, N-hydroxy-4-{5-[4-(5-butylaminomethyl-2-methyl-thiazol-4-yl)-phenoxy]-pentyloxy}-benzamidine]	16 ± 3.3^ab %	8 ± 2.9^ac %	55 ± 6.1	–
Cc1nc(-c2ccc(OCCCCCOc3ccc(C(=N)NO)cc3)cc2)c(CNCC(C)C)s1 [Compound 299, N-hydroxy-4-(5-{4-[5-(isobutylamino-methyl)-2-methyl-thiazol-4-yl]-phenoxy}-pentyloxy)-benzamidine]	14 ± 2.9^ab %	11 ± 6.0^ac %	40 ± 6.9	–
Cc1nc(-c2ccc(OCCCCCOc3ccc(C(=N)NO)cc3)cc2)c(CNC(C)(C)C)s1 [Compound 300, N-hydroxy-4-(5-{4-[5-(tert-butylamino-methyl)-2-methyl-thiazol-4-yl]-phenoxy}-pentyloxy)-benzamidine]	12 ± 1.7^ab %	8 ± 5.2^ac %	48 ± 3	–
CCCNCc1sc(C)nc1-c1ccc(OCCCCCOc2ccc(C(=N)NO)cc2)cc1 [Compound 301, N-hydroxy-4-{5-[4-(2-methyl-5-propylaminomethyl-thiazol-4-yl)-phenoxy]-pentyloxy}-benzamidine]	10 ± 2.3^ab %	6 ± 2.3^ac %	49 ± 5.1	–
Cc1nc(-c2ccc(OCCCCCOc3ccc(C(=N)NO)cc3)cc2)c(CNCCN2CCOCC2)s1 [Compound 302, N-hydroxy-4-[5-(4-{2-methyl-5-[(2-morpholin-4-yl-ethylamino)-methyl]-thiazol-4-yl}-phenoxy)-pentyloxy]-benzamidine]	16 ± 4.5^ab %	9 ± 2.8^ac %	59 ± 10.6	–
Cc1nc(-c2ccc(OCCCCCOc3ccc(C(=N)NO)cc3)cc2)c(CNCCCn2ccnc2)s1 [Compound 303, N-hydroxy-4-[5-(4-{5-[(3-imidazol-1-yl-propylamino)-methyl]-2-methyl-thiazol-4-yl}-phenoxy)-pentyloxy]-benzamidine]	12 ± 2.5^ab %	8 ± 2.2^ac %	53 ± 10.7	–
Cc1nc(-c2ccc(OCCCCCOc3ccc(C(=N)NO)cc3)cc2)c(CN2CCCC2)s1 [Compound 304, N-hydroxy-4-{5-[4-(2-methyl-5-pyrolidin-1-ylmethyl-thiazol-4-yl)-phenoxy]-pentyloxy}-benzamidine]	27 ± 6.4^ab %	16 ± 4.5^ac %	–	54 ± 6.4
Cc1nc(-c2ccc(OCCCCCOc3ccc(C(=N)NO)cc3)cc2)c(Cn2ccnc2)s1 [Compound 305, N-hydroxy-4-{5-[4-(5-imidazol-1-ylmethyl-2-methyl-thiazol-4-yl)-phenoxy]-pentyloxy}-benzamidine]	15 ± 4.8^ab %	11 ± 4.1^ac %	58 ± 6.1	–
Cc1nc(-c2ccc(OCCCCCOc3ccc(C(=N)NO)cc3)cc2)c(CNCc2ccccc2)s1 [Compound 306, N-hydroxy-4-(5-{4-[5-(benzylamino-methyl)-2-methyl-thiazol-4-yl]-phenoxy}-pentyloxy)-benzamidine]	18 ± 4.3^ab %	16 ± 3.3^ac %	48 ± 6.4	–
Cc1nc(-c2ccc(OCCCCCOc3ccc(C(=N)NO)cc3)cc2)c(CNC2CC2)s1 [Compound 307, N-hydroxy-4-{5-[4-(5-cyclopropylaminomethyl-2-methyl-thiazol-4-yl)-phenoxy]-pentyloxy}-benzamidine]	30 ± 3.0^b %	16 ± 4.8^ac %	43 ± 8.9	–
CN(Cc1ccncc1)c1nc(-c2ccc(OCCCCCOc3ccc(C(=N)NO)cc3)cc2)c(CN2CCOCC2)s1 [Compound 309, N-hydroxy-4-(5-{4-[2-(methyl-pyridin-4-ylmethyl-amino)-5-morpholin-4-ylmethyl-thiazol-4-yl]-phenoxy}-pentyloxy)-benzamidine]	13 ± 5.1^ab %	8 ± 3.0^ac %	50 ± 6.1	–
CN(CCO)c1nc(-c2ccc(OCCCCCOc3ccc(C(=N)NO)cc3)cc2)c(CN2CCOCC2)s1 [Compound 310, N-hydroxy-4-[5-(4-{2-[(2-hydroxy-ethyl) -methyl-amino]-5-morpholin-4-ylmethyl-thiazol-4-yl}-phenoxy)-pentyloxy]-benzamidine]	33 ± 5.1^ab %	18 ± 4.5^ac %	49 ± 3.3	–
CCN(C)c1nc(-c2ccc(OCCCCCOc3ccc(C(=N)NO)cc3)cc2)c(CN2CCOCC2)s1 [Compound 311, N-hydroxy-4-(5-{4-[2-(ethyl-methyl-amino)-5-morpholin-4-ylmethyl-thiazol-4-yl]-phenoxy}-pentyloxy)-benzamidine]	21 ± 4.2^b %	12 ± 5.8^ac %	46 ± 10.7	–
CN(CCN1CCOCC1)c1nc(-c2ccc(OCCCCCOc3ccc(C(=N)NO)cc3)cc2)c(CN2CCOCC2)s1 [Compound 313, N-hydroxy-4-[5-(4-{2-[methyl-(2-morpholin-4-yl-ethyl)-amino]-5-morpholin-4-ylmethyl-thiazol-4-yl}-phenoxy)-pentyloxy]-benzamidine]	23 ± 5.9^ab %	13 ± 3.3^ac %	53 ± 6	–
